According to US20160106439A1, “PNEUMATIC TOURNIQUET” (BIONUMERIK PHARMACEUTICALS, INC., priority 2013, published 2016):
Entries after “also recorded” stand apart in the source; their conditions may differ. Read-outs that look alike come from different tables or passages of the source.

Assays:
RNR subunit 1 = RNR subunit 1 (Homo sapiens, UniProt P23921); assay: Whole protein MS of RNR subunit 1; assay type: binding; details: whole protein Mass Spectroscopy
Excerpt: RNR1 contains a total of sixteen (16) cysteine residues and at least five (5) of these cysteine residues are required for catalysis, including: Cys218, Cys429, Cys444, Cys787, and Cys790. It is hypothesized that the Tavocept-derived mesna adducts identified on the RNR1 protein using whole protein Mass Spectroscopy (see, FIG. 49) may alter or modulate RNR activity.

WT EGFR kinase [1] = biological target: T1, WT EGFR kinase (Homo sapiens, UniProt P00533)
γ-Glutamyltranspeptidase = γ-Glutamyltranspeptidase (Homo sapiens, UniProt P19440); assay: γ-glutamyltranspeptidase enzyme activity (summary Table 27); assay type: biochemical
human cancer cell lines = assay: Interference with paclitaxel- and platinum-induced cytotoxicity; assay type: cell-based
Excerpt: Tavocept mediates the non-enzymatic xenobiotic modification of sulfur-containing amino acid residues (e.g., cysteine) on proteins. As an engineered, non-naturally occurring agent (i.e., xenobiotic), Tavocept is autocatalytic and requires no protein cofactor to cause the xenobiotic modification of cysteine, but appears to be specific for cysteine residues located within a particular structural context (i.e., not all cysteines in a protein are so modified). Tavocept-mediated, xenobiotic modification represents a novel mechanism of action for a cancer treating agent and can be compared to a degree with post-translational modifications of cysteine residues in proteins (see, Table 3, below).

[2] = biological target: T2, human glutaredoxin (Grx1) (Homo sapiens, UniProt P35754); assay: X-ray crystallography of Grx1 with Tavocept-derived mesna adducts; assay type: binding; details: 40 mM Tavocept
T2 construct: 6xHis (TEV-cleavable) (N, cleaved yes); made in house; host or cells: E. coli BL21 (RIPL)
Excerpt: Diffraction data were collected at the Advanced Light Source (ALS) (Berkeley, Calif.). […] Data was processed using the program package MosFlm as part of the ccp4 program package.
Data was indexed, integrated, scaled and merged using the program Mosflm. […] The solution was consistent with one molecule in the crystal asymmetric unit. […] The structure solution is supported by contiguous electron density for the entire chain trace of each molecule, landmark side chain density features matching the amino acid sequence including cysteines, absence of phi-psi violations and final R/Rfree values in the normal range. […] Residues Gln39 and Glu55 have missing side-chain atoms in the final structures (side chain atoms CD, CG, OE1, NE2 and CD, OE1, OE2, respectively).

Recombinant human Trx = biological target: T3, Recombinant human Trx (Homo sapiens, UniProt P10599); assay: LC MS of Trypsin digested Trx after incubation with Tavocept, mesna or glutathione; assay type: binding; design: purchased Sigma (SigmaAldrich); host or cells: E. coli; details: 10 mM, 4 to 6 hours
T3 sequence (P10599 1-105): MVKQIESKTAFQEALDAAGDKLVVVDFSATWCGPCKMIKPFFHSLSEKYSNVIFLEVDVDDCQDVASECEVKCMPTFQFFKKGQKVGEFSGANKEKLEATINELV

[3] = test system: bovine brain microtubule protein (α-/β-tubulin); assay: Microtubule protein polymerization assay (OD350) and electron microscopy; assay type: biochemical
WT EGFR kinase [4] = biological target: T1, WT EGFR kinase; assay: WT EGFR kinase assay (ADP-glo)
ROS1 kinase = ROS1 kinase (Homo sapiens, UniProt P08922); details: for effect on crizotinib inhibition of ROS1 kinase activity: ATP and polyGT
Protocol: The substrate that was phosphorylated by the kinase, polyglutamate-tyrosine (PolyGT), was purchased from Sigma (P0275, lot 120M5007V).
All other reagents were purchased from Sigma Aldrich. A Tecan Ultra microplate reader with XFluor4 software (Tecan, V4.51) and RdrOle software (Tecan, V4.50) were used in this study.
ROS1 kinase phosphorylated the polyGT substrate using the ATP cofactor and produced ADP. […] The reactions, in microtubes, were incubated for 60 minutes at 25° C. in a water bath. Following this 60 minute incubation, 10 μL aliquots were transferred to microplates and the kinase activity was evaluated using the Promega ADP-glo system that monitored, in an endpoint assay, ADP produced when ROS1 kinase phosphorylated the PolyGT substrate.
It should be noted that numerous controls were tested and included the assay components indicated in the columns of Table 10 below (where + indicates the component was included and an empty space indicates it was not included).
The Kinase Assays, as described in Section II above, were run in triplicate or quadruplicate in microplates. Following these assays, the ADP-glo detection system (Promega) was used to determine how much ADP had been produced.
For 10 μL volume assays, to each microplate well containing 10 μL of kinase reaction was added ADP-glo reagent (10 μL), the microplates were spun in a table top centrifuge (1000 rpm (123×g) for 1 minute) to ensure that no reagent remained on the walls of the individual wells, and then agitated for 1 minute to ensure optimal mixing. The microplates were incubated at 25° C. on a heat block for 40 minutes. Kinase detection reagent (20 μL) was then added and, as above, centrifugation and agitation was repeated; with the microplates being allowed to incubate at 25° C.±1° C. on a heat block for 40 minutes. Following the incubation of the kinase detection reagent, the microplates were read on a Tecan Ultra microplate reader. The Tecan Ultra contained a built-in plate definition file for the whole area 96-well, white Corning microplates; however a microplate definition file for the half area 96-well Corning plates was created using the RdrOle component of the Tecan Ultra software.
Therefore, each mole of PolyGT polymer of 20,000 g/mole would contain approximately 28 moles of the glu-glu-glu-glu-tyr “subpolymer.”
Typically, a 10 μL assay volume would contain 2 μg of the polyGT substrate. Assuming the lower polymer mass of 20,000 g/mol mass, this translates to approximately 10 μM polyGT per assay and […] glu-glu-glu-glu-tyr “subpolymer” per assay.
Data from ROS1 kinase assays run on the Tecan Ultra microplate spectrophotometer were collected in Microsoft Excel. Error calculations and graphical representations were performed in Microsoft Office Excel (Microsoft Corporation, Redmond, Wash., USA). Determination of IC25, IC50 and IC75 values were accomplished using Origin Lab software (OriginLab Corporation, Northampton, Mass., USA).

[5] = read-out: inhibition of WT EGFR kinase activity

T1 sequence (P00533 25-1210): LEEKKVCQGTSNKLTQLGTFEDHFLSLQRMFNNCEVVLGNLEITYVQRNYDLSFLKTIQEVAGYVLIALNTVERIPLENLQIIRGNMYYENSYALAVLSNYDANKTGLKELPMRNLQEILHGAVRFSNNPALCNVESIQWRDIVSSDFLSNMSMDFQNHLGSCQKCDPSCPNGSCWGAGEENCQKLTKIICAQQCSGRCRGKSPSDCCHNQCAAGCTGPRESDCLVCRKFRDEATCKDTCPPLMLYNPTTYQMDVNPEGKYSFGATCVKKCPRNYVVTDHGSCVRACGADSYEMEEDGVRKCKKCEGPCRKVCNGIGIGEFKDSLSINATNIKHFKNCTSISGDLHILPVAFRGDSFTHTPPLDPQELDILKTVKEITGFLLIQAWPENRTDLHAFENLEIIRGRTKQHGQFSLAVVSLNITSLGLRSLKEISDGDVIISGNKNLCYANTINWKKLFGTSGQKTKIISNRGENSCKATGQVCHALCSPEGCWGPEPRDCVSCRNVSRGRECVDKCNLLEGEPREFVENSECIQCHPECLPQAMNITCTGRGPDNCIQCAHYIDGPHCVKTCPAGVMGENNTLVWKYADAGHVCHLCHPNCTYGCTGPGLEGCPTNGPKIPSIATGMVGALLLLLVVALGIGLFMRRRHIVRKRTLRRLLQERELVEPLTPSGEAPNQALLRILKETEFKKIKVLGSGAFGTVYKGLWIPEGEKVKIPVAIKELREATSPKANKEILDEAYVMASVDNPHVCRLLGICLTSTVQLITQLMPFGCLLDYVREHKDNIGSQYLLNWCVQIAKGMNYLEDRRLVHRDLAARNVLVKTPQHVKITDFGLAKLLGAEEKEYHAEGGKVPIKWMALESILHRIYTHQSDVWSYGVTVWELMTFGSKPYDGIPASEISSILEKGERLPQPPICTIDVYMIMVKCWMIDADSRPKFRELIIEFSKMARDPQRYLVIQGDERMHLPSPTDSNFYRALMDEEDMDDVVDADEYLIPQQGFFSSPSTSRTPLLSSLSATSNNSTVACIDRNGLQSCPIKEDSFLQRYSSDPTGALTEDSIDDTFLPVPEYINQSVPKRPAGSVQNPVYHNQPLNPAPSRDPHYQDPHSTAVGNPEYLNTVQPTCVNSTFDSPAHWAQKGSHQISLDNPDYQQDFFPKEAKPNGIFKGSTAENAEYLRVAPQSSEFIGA
ROS1 kinase, sequence (P08922 1883-2347): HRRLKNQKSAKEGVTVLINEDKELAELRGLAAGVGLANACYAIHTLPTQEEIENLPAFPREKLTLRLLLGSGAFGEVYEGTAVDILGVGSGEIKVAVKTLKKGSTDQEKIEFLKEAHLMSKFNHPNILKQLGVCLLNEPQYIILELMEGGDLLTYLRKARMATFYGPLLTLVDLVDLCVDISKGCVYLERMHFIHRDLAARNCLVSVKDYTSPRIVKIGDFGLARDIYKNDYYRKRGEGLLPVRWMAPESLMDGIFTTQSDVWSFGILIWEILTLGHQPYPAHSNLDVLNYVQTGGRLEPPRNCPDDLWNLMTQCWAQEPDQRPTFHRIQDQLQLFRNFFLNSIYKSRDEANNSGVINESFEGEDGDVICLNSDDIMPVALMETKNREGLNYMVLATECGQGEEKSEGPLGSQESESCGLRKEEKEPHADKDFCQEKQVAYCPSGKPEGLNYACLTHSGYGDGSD
γ-Glutamyltranspeptidase, sequence (P19440 whole entry): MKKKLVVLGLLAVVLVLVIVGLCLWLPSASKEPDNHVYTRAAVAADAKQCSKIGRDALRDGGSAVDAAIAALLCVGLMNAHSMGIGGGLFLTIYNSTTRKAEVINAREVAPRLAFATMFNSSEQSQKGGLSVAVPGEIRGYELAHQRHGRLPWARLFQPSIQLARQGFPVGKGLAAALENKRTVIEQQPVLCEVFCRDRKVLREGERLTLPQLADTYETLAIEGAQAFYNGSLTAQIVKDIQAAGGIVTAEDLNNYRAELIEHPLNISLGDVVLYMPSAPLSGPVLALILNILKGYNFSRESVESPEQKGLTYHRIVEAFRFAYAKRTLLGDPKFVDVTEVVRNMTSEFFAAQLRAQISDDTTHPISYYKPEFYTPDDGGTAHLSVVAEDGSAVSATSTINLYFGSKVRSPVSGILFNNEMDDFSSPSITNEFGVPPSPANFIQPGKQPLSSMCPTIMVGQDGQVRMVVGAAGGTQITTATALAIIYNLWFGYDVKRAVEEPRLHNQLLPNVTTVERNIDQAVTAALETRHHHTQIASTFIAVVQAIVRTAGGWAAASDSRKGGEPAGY
RNR subunit 1, sequence (P23921 whole entry): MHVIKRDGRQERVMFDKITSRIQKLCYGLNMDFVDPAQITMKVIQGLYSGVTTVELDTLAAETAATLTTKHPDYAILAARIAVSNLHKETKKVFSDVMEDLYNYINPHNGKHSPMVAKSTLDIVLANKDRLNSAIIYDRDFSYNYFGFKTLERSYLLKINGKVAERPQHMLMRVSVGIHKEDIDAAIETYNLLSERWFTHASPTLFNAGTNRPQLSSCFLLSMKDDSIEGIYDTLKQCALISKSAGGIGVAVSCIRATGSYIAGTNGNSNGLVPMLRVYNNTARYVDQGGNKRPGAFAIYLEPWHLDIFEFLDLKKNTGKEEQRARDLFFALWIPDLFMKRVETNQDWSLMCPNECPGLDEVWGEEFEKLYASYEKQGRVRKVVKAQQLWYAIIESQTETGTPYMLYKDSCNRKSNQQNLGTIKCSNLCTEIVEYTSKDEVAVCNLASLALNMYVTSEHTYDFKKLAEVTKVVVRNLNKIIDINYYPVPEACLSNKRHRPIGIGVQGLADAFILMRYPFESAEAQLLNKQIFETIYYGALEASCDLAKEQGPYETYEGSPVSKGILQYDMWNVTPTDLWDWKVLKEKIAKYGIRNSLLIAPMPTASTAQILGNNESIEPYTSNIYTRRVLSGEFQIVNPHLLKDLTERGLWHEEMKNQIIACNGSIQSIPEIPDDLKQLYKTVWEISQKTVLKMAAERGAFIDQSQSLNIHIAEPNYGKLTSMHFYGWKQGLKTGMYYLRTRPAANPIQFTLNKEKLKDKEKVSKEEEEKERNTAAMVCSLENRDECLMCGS
T2 sequence (P35754 whole entry): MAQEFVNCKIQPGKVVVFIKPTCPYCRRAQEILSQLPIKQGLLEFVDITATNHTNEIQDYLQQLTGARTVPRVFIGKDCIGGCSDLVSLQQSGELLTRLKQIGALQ

Structure (SMILES): O=S(=O)([O-])CCSSCCS(=O)(=O)[O-].[Na+].[Na+] [Tavocept, disodium 2,2′-dithio-bis-ethane sulfonate]
- number of Tavocept-derived mesna adducts on RNR1 cysteine residues (RNR subunit 1): ≤ 8
- inhibition (WT EGFR kinase [1]): 9%
- Effect on γ-glutamyltranspeptidase enzyme activity (γ-Glutamyltranspeptidase): heteroconjugates can inhibit γ-glutamyl-
- interference with paclitaxel- and platinum-induced cytotoxicity (human cancer cell lines): not to interfere
- Tavocept-derived mesna adduct sites on Grx [2]: observed on Cys7 and Cys82
- Mesna-Cysteine Adduct Detected? (Recombinant human Trx; fragment CMPTFQFFK (cys73)): Yes
- Mesna-Cysteine Adduct Detected? (Recombinant human Trx; fragment LVVVDFSATWCGPCK (active site cys32 and cys35)): No
- Mesna-Cysteine Adduct Detected? (Recombinant human Trx; fragment YSNVIFLEVDVDDCQDVASECEVK (cys62 and cys69)): Yes
- effect on paclitaxel-induced hyperpolymerization of MTP [3]: normalizes
- inhibition of paclitaxel promoted microtubule protein polymerization ([3]; 12 mM Tavocept, paclitaxel 10 μM): approximately 50%
- Tavocept concentration giving final polymerization equal to GTP control ([3]; MTP exposed to paclitaxel): ≥ 6 mM
- Tavocept concentration inhibiting paclitaxel (10 μM) promoted hyperpolymerization ([3]; paclitaxel 10 μM): > 1 mM
- Tavocept concentration giving net polymerization equivalent to GTP/MgCl2 only control ([3]; paclitaxel/GTP/MgCl2 10 μM/1 mM/1 mM): 6 to 8 mM
- microtubules visible on electron microscopy grids ([3]; preincubated 20 minutes on ice, with and without paclitaxel, qualitative): reduction in the abundance of microtubules
- effect on GTP-catalyzed microtubule protein polymerization ([3]; preincubated with microtubule protein on ice 20 minutes, 37° C.): dose-dependent inhibitory effect; also recorded: inhibit GTP-catalyzed polymerization; also recorded: concentration dependent manner
- potentiation of Erlotinib inhibition of WT EGFR kinase activity (WT EGFR kinase [4]; 10 μM ATP): slightly potentiated
- inhibition of WT EGFR kinase (WT EGFR kinase [4]; 100 μM ATP, physiological concentrations (<20 mM)): did not notably inhibit
- IC50 (WT EGFR kinase [4]; IC50 on WT EGFR kinase activity, 10 μM ATP): 24.3 ± 3.7 mM
- IC50 (WT EGFR kinase [4]; IC50 on WT EGFR kinase activity, 100 μM ATP): ≥ 40 mM
- IC50 (WT EGFR kinase [4]; read-out: IC50 on WT EGFR kinase activity, 10 μM ATP): 24.3 mM
- inhibition at 10000 µM (WT EGFR kinase [4]; [5]): 39%
- inhibition at 20000 µM (WT EGFR kinase [4]; [5]): 44%
- loss of ROS1 kinase activity (ROS1 kinase; 5 mM Tavocept incubated with ROS1 for 24 hours prior to ATP and polyGT, 100 μM ATP): 15%
- loss of ROS1 kinase activity (ROS1 kinase; 10 mM Tavocept incubated with ROS1 for 3 hours prior to ATP and polyGT, 100 μM ATP): 16%
- loss of ROS1 kinase activity (ROS1 kinase; 10 mM Tavocept incubated with ROS1 for 24 hours prior to ATP and polyGT, 100 μM ATP): 31%
- loss of ROS1 kinase activity (ROS1 kinase; 20 mM Tavocept incubated with ROS1 for 3 hours prior to ATP and polyGT, 100 μM ATP): 26%
- loss of ROS1 kinase activity (ROS1 kinase; 20 mM Tavocept incubated with ROS1 for 24 hours prior to ATP and polyGT, 100 μM ATP): 48%
- effect on ROS1 kinase activity (ROS1 kinase; Tavocept (2.5-20 mM) added simultaneously with ATP and polyGT): did not have a notable effect; also recorded: no discernible
- effect on crizotinib inhibition of ROS1 kinase activity (ROS1 kinase; Tavocept (2.5 to 20 mM) incubated with ROS1 for 3 or 24 hours prior to crizotinib): additive manner
- effect on crizotinib inhibition of ROS1 kinase activity (ROS1 kinase; Tavocept (2.5 to 20 mM) incubated with ROS1 for 3 or 24 hours prior to crizotinib, listed as BNP7787): additive effect
- effect on crizotinib inhibition of ROS1 kinase activity (ROS1 kinase; Tavocept added simultaneously with crizotinib, 100 μM ATP): did not affect; also recorded: no discernible
